According to patent US20240400553A1, “AMINE BASED MATRIPTASE 2 INHIBITORS AND USES THEREOF” (Disc Medicine, Inc., priority 2023, published 2024):
pKi: −log10 of the molar value.

Each molecule was assayed against T1, Human Recombinant Matriptase 2 (Homo sapiens, UniProt Q8IU80) (assay: Matriptase 2 inhibition, fluorescence based assay (Method I)). Settings: Table A; Ki of Matriptase-2 given as class symbols; read-out: Mat-2 Ki.
T1 construct: made in house
T1 sequence (Q8IU80 1-811): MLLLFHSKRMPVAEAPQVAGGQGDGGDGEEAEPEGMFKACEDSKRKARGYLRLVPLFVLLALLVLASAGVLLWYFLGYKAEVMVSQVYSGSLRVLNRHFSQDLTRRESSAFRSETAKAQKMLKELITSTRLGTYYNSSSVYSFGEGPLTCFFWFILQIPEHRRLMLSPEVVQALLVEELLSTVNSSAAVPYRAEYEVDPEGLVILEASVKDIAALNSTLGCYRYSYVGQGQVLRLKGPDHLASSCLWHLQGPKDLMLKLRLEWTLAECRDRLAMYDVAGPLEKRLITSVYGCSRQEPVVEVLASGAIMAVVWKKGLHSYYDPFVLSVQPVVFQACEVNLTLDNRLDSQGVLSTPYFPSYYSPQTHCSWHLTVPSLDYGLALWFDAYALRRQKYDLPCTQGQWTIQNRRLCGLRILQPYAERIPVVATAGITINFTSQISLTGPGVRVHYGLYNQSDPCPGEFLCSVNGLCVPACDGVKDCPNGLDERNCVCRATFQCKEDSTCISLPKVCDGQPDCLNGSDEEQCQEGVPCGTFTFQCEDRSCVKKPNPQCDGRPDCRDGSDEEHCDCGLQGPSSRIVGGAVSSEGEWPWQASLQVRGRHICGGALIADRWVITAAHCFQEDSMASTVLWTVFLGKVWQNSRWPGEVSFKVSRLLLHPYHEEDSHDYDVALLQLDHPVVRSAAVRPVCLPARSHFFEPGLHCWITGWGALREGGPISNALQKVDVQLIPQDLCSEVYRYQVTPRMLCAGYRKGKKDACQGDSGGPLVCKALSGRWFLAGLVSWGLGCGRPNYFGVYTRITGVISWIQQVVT
Format: biochemical
How it was run: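 Fluorogenic readout (Ex 360/Em 480 nm) taken 60 min after adding 62 μM Boc-Gln-Ala-Arg-AMC, following 30-min enzyme–compound preincubation at 25 °C. Conditions: 3.5 nM in-house enzyme, pH 7.5 Tris/NaCl/gelatin buffer, 1% DMSO; percent inhibition versus concentration fitted by variable-slope sigmoidal regression.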

Row | SMILES | pKi
1 | CN1CCC(COC(=O)c2cc3ccc(CN)nc3n2Cc2cc(NS(=O)(=O)Cc3ccoc3)cc3ccccc23)CC1 [Compound 207, (1-methylpiperidin-4-yl)-methyl 6-(aminomethyl)-1-({3-[(furan-3-yl)meth-anesulfonamido]naph-thalen-1-yl}methyl)-1H-pyrrolo[2,3-b]pyridine-2-carboxylate] | ≥ 7.00
2 | NCc1ccc2cc(C(=O)Nc3nnn[nH]3)n(Cc3cc(NS(=O)(=O)CC[C@@H]4CCCN4)cc4ccccc34)c2n1 [Compound 208, 6-(aminomethyl)-1-[(3-(2-[(2S)-pyrrolidin-2-yl]ethanesulfonamido}-naphthalen-1-yl)methyl]-N-(1H-1,2,3,4-tetrazol-5-yl)-1H-pyrrolo[2,3-b]-pyridine-2-carboxamide] | ≥ 7.00
3 | CN1CCC(COC(=O)c2cc3ccc(CN)nc3n2Cc2cc(NS(=O)(=O)Cc3ccccc3C(F)(F)F)cc3ccccc23)CC1 [Compound 209, (1-methylpiperidin-4-yl)-methyl 6-(aminomethyl)-1-[(3-{[2-(trifluorometh-yl)phenyl]methanesul-fonamido}naphthalen-1-yl)methyl]-1H-pyrrolo-[2,3-b]pyridine-2-car-boxylate] | ≥ 7.00
4 | CN1CCC(COC(=O)c2cc3ccc(CN)nc3n2Cc2cc(NS(=O)(=O)Cc3cnsc3)cc3ccccc23)CC1 [Compound 210, (1-methylpiperidin-4-yl)-methyl 6-(aminomethyl)-1-({3-[(1,2-thiazol-4-yl)-methanesulfonamido]-naphthalen-1-yl}methyl)-1H-pyrrolo[2,3-b]pyr-idine-2-carboxylate] | ≥ 7.00
5 | COCCN1CCC(CS(=O)(=O)Nc2cc(Cn3c(C(=O)O)cc4ccc(CN)nc43)c3ccccc3c2)CC1 [Compound 211, 6-(aminomethyl)-1-[(3-{[1-(2-methoxyethyl)-piperidin-4-yl]methane-sulfonamido}naphthalen-1-yl)methyl]-1H-pyr-rolo[2,3-b]pyridine-2-carboxylic acid] | ≥ 7.00
6 | Cc1ccccc1CS(=O)(=O)Nc1cc(Cn2c(C(=O)O)cc3ccc(CN)nc32)c2ccccc2c1 [Compound 212, 6-(aminomethyl)-1-({3-[(2-methylphenyl)meth-anesulfonamido]naph-thalen-1-yl}methyl)-1H-pyrrolo[2,3-b]pyridine-2-carboxylic acid] | ≥ 7.00
7 | NCc1ccc2cc(C(N)=O)n(Cc3cc(NS(=O)(=O)CC[C@@H]4CCCN4)cc4ccccc34)c2n1 [Compound 213, 6-(aminomethyl)-1-[(3-{2-[(2S)-pyrrolidin-2-yl]ethanesulfonamido}-naphthalen-1-yl)methyl]-1H-pyrrolo[2,3-b]pyr-idine-2-carboxamide] | ≥ 7.00
8 | NCc1ccc2cc(C(=O)O)n(Cc3cc(NS(=O)(=O)CCN4CCNCC4)cc4ccccc34)c2n1 [Compound 214, 6-(aminomethyl)-1-({3-[2-(piperazin-1-yl)-ethanesulfonamido]-naphthalen-1-yl}meth-yl)-1H-pyrrolo[2,3-b]-pyridine-2-carboxylic acid] | ≥ 7.00
9 | CNC(=O)c1cc2ccc(CN)nc2n1Cc1cc(NS(=O)(=O)CC2CCNCC2)cc2ccccc12 [Compound 215, 6-(aminomethyl)-N-methyl-1-({3-[(piperi-din-4-yl)methanesulfon-amido]naphthalen-1-yl}-methyl)-1H-pyrrolo[2,3-b]pyridine-2-carboxamide] | 6.30 to 7.00
10 | NCc1ccc2cc(C(=O)O)n(Cc3cc(NS(=O)(=O)CC4CCNCC4)cc4ccccc34)c2n1 [Compound 216, 6-(aminomethyl)-1-({3-[(piperidin-4-yl)methane-sulfonamido]naphthalen-1-yl}methyl)-1H-pyr-rolo[2,3-b]pyridine-2-carboxylic acid] | 6.30 to 7.00
11 | NCc1ccc2cc(C(=O)O)n(Cc3cc(NS(=O)(=O)CC[C@H]4CCCN4)cc4ccccc34)c2n1 [Compound 217, 6-(aminomethyl)-1-[(3-{2-[(2R)-pyrrolidin-2-yl]ethanesulfonamido}-naphthalen-1-yl)methyl]-1H-pyrrolo[2,3-b]pyr-idine-2-carboxylic acid] | 6.30 to 7.00
12 | N#Cc1cccc(CS(=O)(=O)Nc2cc(Cn3c(C(=O)O)cc4ccc(CN)nc43)c3ccccc3c2)c1 [Compound 218, 6-(aminomethyl)-1-({3-[(3-cyanophenyl)meth-anesulfonamido]naph-thalen-1-yl}methyl)-1H-pyrrolo[2,3-b]pyridine-2-carboxylic acid] | 6.30 to 7.00
13 | CN(C)CCCCS(=O)(=O)Nc1cc(Cn2c(C(=O)O)cc3ccc(CN)nc32)c2ccccc2c1 [Compound 219, 6-(aminomethyl)-1-({3-[4-(dimethylamino)-butanesulfonamido]naph-thalen-1-yl}methyl)-1H-pyrrolo[2,3-b]pyridine-2-carboxylic acid] | 6.30 to 7.00
14 | NCc1ccc2cc(C(=O)O)n(Cc3cc(NS(=O)(=O)Cc4ccoc4)cc4ccccc34)c2n1 [Compound 220, 6-(aminomethyl)-1-({3-[(furan-3-yl)methane-sulfonamido]naphthalen-1-yl}methyl)-1H-pyr-rolo[2,3-b]pyridine-2-carboxylic acid] | 6.30 to 7.00
15 | CN1CCC(COC(=O)c2cc3ccc(CN)nc3n2Cc2cc(NS(=O)(=O)Cc3cccc(C#N)c3)cc3ccccc23)CC1 [Compound 221, (1-methylpiperidin-4-yl)methyl 6-(aminometh-yl)-1-({3-[(3-cyanophen-yl)methanesulfonamido]-naphthalen-1-yl}methyl)-1H-pyrrolo[2,3-b]pyr-idine-2-carboxylate] | 6.30 to 7.00
16 | NCc1ccc2cc(C(=O)O)n(Cc3cc(NS(=O)(=O)Cc4ccccn4)cc4ccccc34)c2n1 [Compound 222, 6-(aminomethyl)-1-({3-[(pyridin-2-yl)methane-sulfonamido]naphthalen-1-yl}methyl)-1H-pyr-rolo[2,3-b]pyridine-2-carboxylic acid] | 6.30 to 7.00
17 | NCc1ccc2cc(C(=O)O)n(Cc3cc(NS(=O)(=O)CCC4CCNCC4)cc4ccccc34)c2n1 [Compound 223, 6-(aminomethyl)-1-({3-[2-(piperidin-4-yl)-ethanesulfonamido]-naphthalen-1-yl}meth-yl)-1H-pyrrolo[2,3-b]-pyridine-2-carboxylic acid] | 6.30 to 7.00
18 | NCc1ccc2cc(C(=O)O)n(Cc3cc(NS(=O)(=O)Cc4ccccc4C(F)(F)F)cc4ccccc34)c2n1 [Compound 225, 6-(aminomethyl)-1-[(3-{[2-(trifluoromethyl)-phenyl]methanesulfon-amido}naphthalen-1-yl)methyl]-1H-pyrrolo-[2,3-b]pyridine-2-car-boxylic acid] | 6.30 to 7.00
19 | NCc1ccc2cc(C(=O)O)n(Cc3cc(NS(=O)(=O)CCn4cnnn4)cc4ccccc34)c2n1 [Compound 226, 6-(aminomethyl)-1-({3-[2-(1H-1,2,3,4-tetrazol-1-yl)ethanesulfonamido]-naphthalen-1-yl}methyl)-1H-pyrrolo[2,3-b]pyr-idine-2-carboxylic acid] | 6.30 to 7.00
20 | NCc1ccc2cc(C(=O)O)n(Cc3cc(NS(=O)(=O)Cc4ccccc4F)cc4ccccc34)c2n1 [Compound 227, 6-(aminomethyl)-1-({3-[(2-fluorophenyl)meth-anesulfonamido]naph-thalen-1-yl}methyl)-1H-pyrrolo[2,3-b]pyridine-2-carboxylic acid] | 6.30 to 7.00
21 | NCc1ccc2cc(C(=O)O)n(Cc3cc(NS(=O)(=O)CCn4ccnn4)cc4ccccc34)c2n1 [Compound 228, 6-(aminomethyl)-1-({3-[2-(1H-1,2,3-triazol-1-yl)ethanesulfonamido]-naphthalen-1-yl}meth-yl)-1H-pyrrolo[2,3-b]-pyridine-2-carboxylic acid] | 6.30 to 7.00
22 | NCc1ccc2cc(C(=O)O)n(Cc3cc(NS(=O)(=O)Cc4cccc(F)c4)cc4ccccc34)c2n1 [Compound 229, 6-(aminomethyl)-1-({3-[(3-fluorophenyl)meth-anesulfonamido]naph-thalen-1-yl}methyl)-1H-pyrrolo[2,3-b]pyridine-2-carboxylic acid] | 6.30 to 7.00
23 | NCc1ccc2cc(C(=O)O)n(Cc3cc(NS(=O)(=O)CCc4ccccc4)cc4ccccc34)c2n1 [Compound 230, 6-(aminomethyl)-1-{[3-(2-phenylethanesulfon-amido)naphthalen-1-yl]-methyl}-1H-pyrrolo[2,3-b]pyridine-2-carboxylic acid] | 6.30 to 7.00
24 | NCc1ccc2cc(C(=O)O)n(Cc3cc(NS(=O)(=O)Cc4cncnc4)cc4ccccc34)c2n1 [Compound 231, 6-(aminomethyl)-1-({3-[(pyrimidin-5-yl)methane-sulfonamido]naphthalen-1-yl}methyl)-1H-pyr-rolo[2,3-b]pyridine-2-carboxylic acid] | 6.30 to 7.00
